According to patent US9695155B2, “Herbicidal substituted pyrimidinyloxy benzene compounds” (E. I. DU PONT DE NEMOURS AND COMPANY, priority 2013, dated 2017):

Legend:
Experiment in all cases: Test E preemergence
soybean = type: in vivo, Glycine max; details: for Soybean plant response rating: scale 0 to 100 (0 no effect, 100 complete control); for Plant response rating, Soybean: scale 0 to 100, 0 no effect, 100 complete control
Outline: (§1)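 Response was scored visually on a 0-100 scale (100 = complete control) versus controls after 14 to 21 days in the greenhouse. Test chemicals, formulated with surfactant in a non-phytotoxic solvent mixture, had been applied preemergence to seeds in silt loam soil or postemergence to 1- to 4-leaf plants in potting medium.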

surinam grass = type: in vivo, Brachiaria decumbens; details: for Surinam Grass plant response rating: scale 0 to 100 (0 no effect, 100 complete control); for Plant response rating, Surinam Grass: scale 0 to 100, 0 no effect, 100 complete control
Outline: as §1

large (Lg) crabgrass = type: in vivo, Digitaria sanguinalis; details: for Crabgrass, Large plant response rating: scale 0 to 100 (0 no effect, 100 complete control); for Plant response rating, Crabgrass, Large: scale 0 to 100, 0 no effect, 100 complete control
Outline: as §1

fall panicum = type: in vivo, Panicum dichotomiflorum; details: for Panicum, Fall plant response rating: scale 0 to 100 (0 no effect, 100 complete control); for Plant response rating, Panicum, Fall: scale 0 to 100, 0 no effect, 100 complete control
Outline: as §1

giant foxtail = type: in vivo, Setaria faberii; details: for Foxtail, Giant plant response rating: scale 0 to 100 (0 no effect, 100 complete control); for Plant response rating, Foxtail, Giant: scale 0 to 100, 0 no effect, 100 complete control
Outline: as §1

goosegrass = type: in vivo, Eleusine indica; details: for Goosegrass plant response rating: scale 0 to 100 (0 no effect, 100 complete control); for Plant response rating, Goosegrass: scale 0 to 100, 0 no effect, 100 complete control
Outline: as §1

ragweed = type: in vivo, Ambrosia elatior; details: for Ragweed plant response rating: scale 0 to 100 (0 no effect, 100 complete control); for Plant response rating, Ragweed: scale 0 to 100, 0 no effect, 100 complete control
Outline: as §1

barnyardgrass = type: in vivo, Echinochloa crus-galli; details: for Barnyardgrass plant response rating: scale 0 to 100 (0 no effect, 100 complete control); for Plant response rating, Barnyardgrass: scale 0 to 100, 0 no effect, 100 complete control
Outline: as §1

sandbur = type: in vivo, Cenchrus echinatus; details: for Sandbur plant response rating: scale 0 to 100 (0 no effect, 100 complete control); for Plant response rating, Sandbur: scale 0 to 100, 0 no effect, 100 complete control
Outline: as §1

Italian ryegrass = type: in vivo, Lolium multiflorum; details: for Ryegrass, Italian plant response rating: scale 0 to 100 (0 no effect, 100 complete control); for Plant response rating, Ryegrass, Italian: scale 0 to 100, 0 no effect, 100 complete control
Outline: as §1

morningglory = type: in vivo, Ipomoea coccinea; details: for Morningglory plant response rating: scale 0 to 100 (0 no effect, 100 complete control); for Plant response rating, Morningglory: scale 0 to 100, 0 no effect, 100 complete control
Outline: as §1

nightshade = type: in vivo, Solanum ptycanthum; details: for Nightshade plant response rating: scale 0 to 100 (0 no effect, 100 complete control); for Plant response rating, Nightshade: scale 0 to 100, 0 no effect, 100 complete control
Outline: as §1

kochia = type: in vivo, Kochia scoparia; details: for Kochia plant response rating: scale 0 to 100 (0 no effect, 100 complete control); for Plant response rating, Kochia: scale 0 to 100, 0 no effect, 100 complete control
Outline: as §1

hairy beggarticks = type: in vivo, Bidens pilosa; details: for Beggarticks plant response rating: scale 0 to 100 (0 no effect, 100 complete control); for Plant response rating, Beggarticks: scale 0 to 100, 0 no effect, 100 complete control
Outline: as §1

N#Cc1cccc(Oc2ncc(F)cn2)c1-n1cc(Cl)cn1 [Compound 73]
Soybean plant response rating (soybean; 16 g ai/ha): 15
Soybean plant response rating (soybean; 31 g ai/ha): 25
Soybean plant response rating (soybean; 62 g ai/ha): 25
Plant response rating, Soybean (soybean; 125 g ai/ha): 70
Plant response rating, Soybean (soybean; 250 g ai/ha): 80
Surinam Grass plant response rating (surinam grass; 16 g ai/ha): 0
Surinam Grass plant response rating (surinam grass; 31 g ai/ha): 0
Surinam Grass plant response rating (surinam grass; 62 g ai/ha): 5
Plant response rating, Surinam Grass (surinam grass; 125 g ai/ha): 20
Plant response rating, Surinam Grass (surinam grass; 250 g ai/ha): 35
Crabgrass, Large plant response rating (large (Lg) crabgrass; 16 g ai/ha): 0
Crabgrass, Large plant response rating (large (Lg) crabgrass; 31 g ai/ha): 30
Crabgrass, Large plant response rating (large (Lg) crabgrass; 62 g ai/ha): 100
Plant response rating, Crabgrass, Large (large (Lg) crabgrass; 125 g ai/ha): 100
Plant response rating, Crabgrass, Large (large (Lg) crabgrass; 250 g ai/ha): 100
Panicum, Fall plant response rating (fall panicum; 16 g ai/ha): 0
Panicum, Fall plant response rating (fall panicum; 31 g ai/ha): 40
Panicum, Fall plant response rating (fall panicum; 62 g ai/ha): 98
Plant response rating, Panicum, Fall (fall panicum; 125 g ai/ha): 98
Plant response rating, Panicum, Fall (fall panicum; 250 g ai/ha): 100
Foxtail, Giant plant response rating (giant foxtail; 16 g ai/ha): 0
Foxtail, Giant plant response rating (giant foxtail; 31 g ai/ha): 20
Foxtail, Giant plant response rating (giant foxtail; 62 g ai/ha): 50
Plant response rating, Foxtail, Giant (giant foxtail; 125 g ai/ha): 95
Plant response rating, Foxtail, Giant (giant foxtail; 250 g ai/ha): 100
Goosegrass plant response rating (goosegrass; 16 g ai/ha): 0
Goosegrass plant response rating (goosegrass; 31 g ai/ha): 20
Goosegrass plant response rating (goosegrass; 62 g ai/ha): 70
Plant response rating, Goosegrass (goosegrass; 125 g ai/ha): 98
Plant response rating, Goosegrass (goosegrass; 250 g ai/ha): 100
Ragweed plant response rating (ragweed; 16 g ai/ha): 0
Ragweed plant response rating (ragweed; 31 g ai/ha): 5
Ragweed plant response rating (ragweed; 62 g ai/ha): 30
Plant response rating, Ragweed (ragweed; 125 g ai/ha): 60
Plant response rating, Ragweed (ragweed; 250 g ai/ha): 80
Barnyardgrass plant response rating (barnyardgrass; 16 g ai/ha, preemergence): 0
Barnyardgrass plant response rating (barnyardgrass; 31 g ai/ha, preemergence): 0
Plant response rating, Barnyardgrass (barnyardgrass; Preemergence, 62 g ai/ha): 0
Plant response rating, Barnyardgrass (barnyardgrass; preemergence, 125 g ai/ha): 20
Plant response rating, Barnyardgrass (barnyardgrass; preemergence, 250 g ai/ha): 75
Sandbur plant response rating (sandbur; 16 g ai/ha): 10
Sandbur plant response rating (sandbur; 31 g ai/ha): 20
Sandbur plant response rating (sandbur; 62 g ai/ha): 20
Plant response rating, Sandbur (sandbur; 125 g ai/ha): 30
Plant response rating, Sandbur (sandbur; 250 g ai/ha): 35
Ryegrass, Italian plant response rating (Italian ryegrass; 16 g ai/ha): 0
Ryegrass, Italian plant response rating (Italian ryegrass; 31 g ai/ha): 20
Ryegrass, Italian plant response rating (Italian ryegrass; 62 g ai/ha): 35
Plant response rating, Ryegrass, Italian (Italian ryegrass; 125 g ai/ha): 35
Plant response rating, Ryegrass, Italian (Italian ryegrass; 250 g ai/ha): 65
Morningglory plant response rating (morningglory; 16 g ai/ha): 0
Morningglory plant response rating (morningglory; 31 g ai/ha): 0
Morningglory plant response rating (morningglory; 62 g ai/ha): 10
Plant response rating, Morningglory (morningglory; 125 g ai/ha): 30
Plant response rating, Morningglory (morningglory; 250 g ai/ha): 60
Nightshade plant response rating (nightshade; 16 g ai/ha): 65
Nightshade plant response rating (nightshade; 31 g ai/ha): 80
Nightshade plant response rating (nightshade; 62 g ai/ha): 90
Plant response rating, Nightshade (nightshade; 125 g ai/ha): 98
Plant response rating, Nightshade (nightshade; 250 g ai/ha): 100
Kochia plant response rating (kochia; 16 g ai/ha): 5
Kochia plant response rating (kochia; 31 g ai/ha): 75
Kochia plant response rating (kochia; 62 g ai/ha): 98
Plant response rating, Kochia (kochia; 125 g ai/ha): 98
Plant response rating, Kochia (kochia; 250 g ai/ha): 100
Beggarticks plant response rating (hairy beggarticks; 16 g ai/ha, preemergence): 5
Beggarticks plant response rating (hairy beggarticks; 31 g ai/ha, preemergence): 5
Plant response rating, Beggarticks (hairy beggarticks; Preemergence, 62 g ai/ha): 20
Plant response rating, Beggarticks (hairy beggarticks; preemergence, 125 g ai/ha): 50
Plant response rating, Beggarticks (hairy beggarticks; preemergence, 250 g ai/ha): 75
